One series concerns L. monocytogenes LK132. Format: cell-based, Listeria monocytogenes. Particulars: LK132. As for the experimental part: (§1) Each experiment was performed in triplicate.
The test system of series [1] is L. monocytogenes LMG10470. In kind it is cell-based, Listeria monocytogenes. Particulars: LMG10470. As to the method: as §1
In another series the test system is L. monocytogenes TT82E. In kind it is cell-based, Listeria monocytogenes. Particulars: TT82E. As to the method:
as §1

The next series has as its system Bacillus cereus CH-85. Format: cell-based. Particulars: CH-85. As for the experimental part: as §1
The test system of another series is L. lactis MG1363. Kind of series: Time-kill assay. Particulars: 5-fold MIC. Format: cell-based, Lactococcus lactis. As to the method:
The bactericidal activity of nisin, nisin(1–22), and rombocin was evaluated according to a previously described procedure based on Guo et al.[38] Briefly, an overnight culture of L. lactis MG1363 was diluted 50-fold in GM17 medium and incubated at 30 °C. The bacteria were grown until reaching an optical density at 600 nm (OD600) of 0.5, at which point the cell concentration was adjusted to 5 × 10^5 CFU/mL. Subsequently, the bacteria were challenged with a 5-fold MIC of each peptide. A control sample of an untreated cell suspension was included. At specific time points, 50 μL aliquots were collected, and undiluted and 10-fold serially diluted suspensions were plated on GM17 agar. The plates were incubated overnight at 30 °C, and the resulting colonies were counted and calculated as colony-forming units per milliliter (CFU/mL). Both assays were performed in triplicate to ensure reproducibility.

The test system of series [2] is L. lactis. Nature of the series: Fluorescence microscopy assay of membrane integrity (SYTO 9 / propidium iodide). In kind it is cell-based, Lactococcus lactis. Particulars: 5× MIC, 15 min / 20 min (method), room temperature. As to the method:
L. lactis was cultured until it reached an OD600 of 0.8 and then pelleted at 8000g for 5 min and washed three times in 0.7% NaCl. The cell density was normalized to an OD600 of 0.4 in 0.7% NaCl, and a concentration of 5-fold MIC value of each tested antibiotic was added to the cell suspension simultaneously with SYTO 9 and propidium iodide using the LIVE/DEAD Baclight Bacterial Viability Kit (Invitrogen). After incubation at room temperature for 20 min, the compounds were removed by washing the cells with 0.7% NaCl. Finally, the cell suspensions were loaded onto 1.5% agarose pads and analyzed with a DeltaVision Elite microscope (Applied Precision).

Series [3] has as its system L. lactis. Kind of series: Potassium ion efflux assay (PBFI probe). In kind it is cell-based, Lactococcus lactis. Particulars: 5× MIC, 10 mM HEPES pH 7.2 with 0.5% glucose, 10 μM PBFI. As to the method: To perform the K^+ release assay, we used the K^+-specific fluorescent probe PBFI. L. lactis was cultured in GM17 until the OD600 reached 0.6, after which the cells were harvested (5000g, 5 min) and washed twice with 10 mM HEPES (pH 7.2) with 0.5% glucose. The cells were then resuspended in the same buffer containing 10 μM PBFI. Data were analyzed using a Varioskan LUX Multimode Microplate Reader; cells were excited at 346 nm, and the fluorescence emission was measured at 505 nm to establish a baseline signal before the addition of 5-fold MIC antibiotics, after which data were collected. Nisin was used as a positive control.

Series [4] has as its system L. lactis. Nature of the series: Membrane potential determination (DiSC3(5) probe). In kind it is cell-based, Lactococcus lactis. Particulars: 5× MIC, 10 mM HEPES with 10 mM glucose pH 7.2, 2 μM DiSC3(5), 25 min. As to the method:
To measure the membrane potential, the membrane potential-sensitive fluorescent dye DiSC3(5) was utilized. L. lactis was cultured to an OD600 of 0.8, pelleted at 5000g for 5 min, and washed twice in 10 mM HEPES with 10 mM glucose (pH 7.2). The cell density was adjusted to an OD600 of 0.2 and loaded with 2 μM DiSC3(5) dye, followed by 20 min of incubation in the dark to stabilize the probe fluorescence. Next, the cell suspension was added to a 96-well microplate and incubated for 5 min with 100 mM KCl. […] The fluorescence spectrometer’s excitation and emission wavelengths were adjusted to 622 and 670 nm, respectively. Three technical replicates were performed, and the representative example is shown.

The nature of series [5]: pH stability by residual antimicrobial activity. In kind it is physicochemical. Particulars: residual antimicrobial activity vs L. lactis 1363, agar well, triplicate. As to the method: To investigate the impact of proteolytic enzymes, pH, and temperature on the antimicrobial activity, a representative strain of L. lactis 1363 was utilized. For the proteolytic enzyme assay, 40 μL of peptide (1 mg/mL) was incubated with or without final concentrations of 1 mg/mL proteolytic enzymes at room temperature for 3 h, followed by an activity test in the agar well. To determine pH stability, the pH was adjusted to 2, 4, 7, and 10 using 1 M HCl or NaOH. The temperature stability was assessed by incubating the peptide at 22, 50, 70, and 90 °C for a specified duration. All experiments were performed in triplicate.
Overnight cultures of the test strains were inoculated at a final concentration of 0.1% (v/v) into melted LB agar at 45 °C and then poured onto plates. After solidification, 8 mm wells were created and filled with 40 μL of the lantibiotic solution (1 mg/mL). The lantibiotics were activated by adding 5 μL of NisP directly to the well. The plates were then incubated overnight at 30 °C, and the zone of inhibition was measured. Zone diameters were calculated by subtracting the area of the well (πr^2) from the area of the zone (πr^2) and reported in millimeters. To determine the peptide concentration, purified and lyophilized peptides were resuspended in 0.05% aqueous acetic acid solution and quantified by HPLC following the protocol described by Schmitt et al.[44] All experiments were performed in triplicate.

≈ marks a conversion by molar mass, not a printed value.

A word on the MIC: it is the lowest concentration found to suppress growth. Read a high MIC as a less susceptible organism.

`C=C1NC(=O)[C@H]([C@@H](C)CC)NC(=O)C(NC(=O)C(=CC)NC(=O)[C@@H](N)[C@@H](C)CC)CSC[C@@H](C(=O)NC2C(=O)N[C@@H](C)C(=O)NCC(=O)N[C@H](C(=O)N[C@H](C(=O)NC3C(=O)NCC(=O)N[C@@H](C(C)C)C(=O)N[C@@H]([C@@H](C)CC)C(=O)N[C@@H](CCSC)C(=O)NC(=CC)C(=O)N[C@H](C(=O)N[C@@H](CCSC)C(=O)NC4CSC[C@@H](C(=O)N[C@@H](CCCCN)C(=O)O)NC(=O)CNC(=O)[C@H](CC(N)=O)NC4=O)CSC3C)[C@@H](C)CC)CSC2C)NC(=O)[C@H](CC(C)C)NC1=O` (stereo partly drawn) [rombocin A]: the MIC is 25 µg/mL (≈ 10.5 µM) with L. monocytogenes LK132, 25 µg/mL (≈ 10.5 µM) in [1], 12,5 μg/mL in the series on L. monocytogenes TT82E and 25 µg/mL (≈ 10.5 µM) in the series on Bacillus cereus CH-85. Further, the “time to complete killing” value with L. lactis MG1363 (L. lactis MG1363, 5 × 10^5 CFU/mL, CFU counting, triplicate) amounted to 18 h. The “bacteriostatic or bactericidal activity” value with L. lactis MG1363 (L. lactis, time-dependent killing) is recorded as “strong bactericidal activity”. Moreover, the “membrane integrity (SYTO 9 / propidium iodide fluorescence)” value in the series with L. lactis [2] is “membrane disruption similar to nisin”. For the same molecule, the “release of intracellular potassium ions (PBFI fluorescence)” value in the series with L. lactis [3] is reported as “did not have this effect”. The “membrane depolarization (DiSC3(5) fluorescence)” value in the series on L. lactis [4] is on record as “significant membrane depolarization”. Further, the retained activity is 70% in series [5] (neutral pH, after 8 h of incubation); “more than 80%” in series [5] (pH 2 and 4, after 8 h of incubation). The reduction in activity entry in series [5] (pH 2, 4, 7, and 10 (adjusted with 1 M HCl or NaOH), up to 5.5 h) is “less than 20%”.

Values taken from paper PMC10804407, “Rombocin, a Short Stable Natural Nisin Variant, Displays Selective Antimicrobial Activity against Listeria monocytogenes and Employs a Dual Mode of Action to Kill Target Bacterial Strains” (ACS Synthetic Biology, 2024).
